Assays:
[1] = Volume of distribution in mouse at 5 mg/kg, iv; assay type: ADME, organism-based; set-up: dose 5 mg/kg, route intravenous; details: in vivo
[2] = Drug level in plasma of nude mouse bearing human MDA-MB-361 cells at 25 mg/kg, iv after 8 hrs; assay type: ADME, organism-based; set-up: dose 25 mg/kg, route intravenous; details: read-out: Drug uptake
[3] = AUC (0 to infinity) in mouse at 5 mg/kg, iv; assay type: ADME, organism-based; set-up: time infinity, dose 5 mg/kg, route intravenous; details: plasma
[4] = Drug level in tumor of human MDA-MB-361 cells xenografted nude mouse at 25 mg/kg, iv after 8 hrs; assay type: ADME, organism-based, Neoplasm; set-up: dose 25 mg/kg, route intravenous; details: read-out: Drug uptake

CC(C)N1CCN(C(=O)c2ccc(NC(=O)Nc3ccc(-c4nc(C5CCOCC5)nc(N5C6CCC5COC6)n4)cc3)cc2)CC1
Vd [1]: 1.3 L/kg | concentration at 8 h [2]: 2160 ng/mL | AUC(0-inf) [3]: 16700 ng·h/mL | concentration at 8 h [4]: 2470 ng/mL
